Measured values as given in patent US20210317140A1, “Heterocyclic Compounds and Methods of Use” (MEDIVATION TECHNOLOGIES, INC, priority 2013, published 2021).

Tests used:
[1] = molecular target: T1, PI3Kδ (Homo sapiens, UniProt O00329); test: PI3Kδ kinase assay (HTRF, PIP3 detection); assay type: biochemical; conditions: for PI3Kδ @ 0.1 μM (% Inh): 0.1 μM compound; for PI3Kδ @ 0.1 μM (% Inh) / PI3Kδ @ 0.01 μM (% Inh) / PI3Kδ @ 1 μM (% Inh): 10 μM ATP; for IC50: 10 dose IC50, 10 μM ATP; for PI3Kδ @ 0.01 μM (% Inh): 0.01 μM compound; for PI3Kδ @ 1 μM (% Inh): 1 μM compound
T1 construct: purchased Reaction Biology Corporation
Outline: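 PIP3 formation read by loss of energy transfer as it displaces biotin-PIP3 from a Eu anti-GST/GST-PH/streptavidin-APC complex, calibrated against PIP3 standards.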

[2] = molecular target: T2, TEC (Homo sapiens, UniProt P42680); test: TEC kinase profiling (BTK protocol); assay type: biochemical; conditions: for TEC @ 0.3 μM (% Inh): 0.3 μM compound; for IC50: 10 dose IC50
T2 construct: purchased Reaction Biology Corporation
T2 sequence (P42680 1-631): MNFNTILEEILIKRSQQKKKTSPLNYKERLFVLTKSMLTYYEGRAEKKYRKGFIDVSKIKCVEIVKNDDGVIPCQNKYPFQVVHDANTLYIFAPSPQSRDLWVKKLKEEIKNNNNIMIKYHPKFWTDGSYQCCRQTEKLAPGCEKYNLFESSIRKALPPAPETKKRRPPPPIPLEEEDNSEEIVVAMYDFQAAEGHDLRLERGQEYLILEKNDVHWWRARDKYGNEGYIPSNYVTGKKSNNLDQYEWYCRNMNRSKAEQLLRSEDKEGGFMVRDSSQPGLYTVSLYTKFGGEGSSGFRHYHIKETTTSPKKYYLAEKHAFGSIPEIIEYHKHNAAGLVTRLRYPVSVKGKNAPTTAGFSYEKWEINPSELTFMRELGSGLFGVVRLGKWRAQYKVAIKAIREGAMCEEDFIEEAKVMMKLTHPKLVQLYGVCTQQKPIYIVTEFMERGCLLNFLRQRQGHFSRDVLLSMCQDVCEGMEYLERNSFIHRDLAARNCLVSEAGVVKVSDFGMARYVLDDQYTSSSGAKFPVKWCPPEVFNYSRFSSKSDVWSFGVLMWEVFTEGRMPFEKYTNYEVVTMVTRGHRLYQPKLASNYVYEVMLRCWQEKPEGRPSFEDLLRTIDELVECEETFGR
Protocol: BTK assay: In vitro profiling protein kinases was performed using the “HotSpot” assay platform. Briefly, specific kinase/substrate pairs along with required cofactors were prepared in reaction buffer. Compounds were prepared as 10 mM stock solutions in DMSO. Compounds were delivered into the reaction, followed 15-20 minutes later by addition of a mixture of ATP (Sigma, St. Louis Mo.) and ^33P ATP (Perkin Elmer, Waltham Mass.) to a final concentration of 10 μM. […] IC50 values and curve fits were obtained using Prism (GraphPad Software). Buffer Conditions: 20 mM Hepes (pH 7.5), 10 mM MgCl2, 1 mM EGTA, 0.02% Brij35, 0.02 mg/mL BSA, 0.1 mM Na3VO4, 2 mM DTT, 1% DMSO.

[3] = system: CD69+B220+ cells; test: B cell activation assay (IgD-stimulated splenocytes, CD69+B220+ cells by FACS); assay type: cell-based; conditions: IgD 3 μg/mL, 4 h; for CD69 @ 100 nM (% Inh): 100 nM compound
Outline: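 Read-out is percent CD69+ among live B220+ cells by FACS after 4 h stimulation with 3 μg/mL IgD at 37 °C. Before stimulation, splenocytes from one female mouse (10^6 cells/mL) received 100 nM compound for 30 min.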

T1 sequence (O00329 whole entry): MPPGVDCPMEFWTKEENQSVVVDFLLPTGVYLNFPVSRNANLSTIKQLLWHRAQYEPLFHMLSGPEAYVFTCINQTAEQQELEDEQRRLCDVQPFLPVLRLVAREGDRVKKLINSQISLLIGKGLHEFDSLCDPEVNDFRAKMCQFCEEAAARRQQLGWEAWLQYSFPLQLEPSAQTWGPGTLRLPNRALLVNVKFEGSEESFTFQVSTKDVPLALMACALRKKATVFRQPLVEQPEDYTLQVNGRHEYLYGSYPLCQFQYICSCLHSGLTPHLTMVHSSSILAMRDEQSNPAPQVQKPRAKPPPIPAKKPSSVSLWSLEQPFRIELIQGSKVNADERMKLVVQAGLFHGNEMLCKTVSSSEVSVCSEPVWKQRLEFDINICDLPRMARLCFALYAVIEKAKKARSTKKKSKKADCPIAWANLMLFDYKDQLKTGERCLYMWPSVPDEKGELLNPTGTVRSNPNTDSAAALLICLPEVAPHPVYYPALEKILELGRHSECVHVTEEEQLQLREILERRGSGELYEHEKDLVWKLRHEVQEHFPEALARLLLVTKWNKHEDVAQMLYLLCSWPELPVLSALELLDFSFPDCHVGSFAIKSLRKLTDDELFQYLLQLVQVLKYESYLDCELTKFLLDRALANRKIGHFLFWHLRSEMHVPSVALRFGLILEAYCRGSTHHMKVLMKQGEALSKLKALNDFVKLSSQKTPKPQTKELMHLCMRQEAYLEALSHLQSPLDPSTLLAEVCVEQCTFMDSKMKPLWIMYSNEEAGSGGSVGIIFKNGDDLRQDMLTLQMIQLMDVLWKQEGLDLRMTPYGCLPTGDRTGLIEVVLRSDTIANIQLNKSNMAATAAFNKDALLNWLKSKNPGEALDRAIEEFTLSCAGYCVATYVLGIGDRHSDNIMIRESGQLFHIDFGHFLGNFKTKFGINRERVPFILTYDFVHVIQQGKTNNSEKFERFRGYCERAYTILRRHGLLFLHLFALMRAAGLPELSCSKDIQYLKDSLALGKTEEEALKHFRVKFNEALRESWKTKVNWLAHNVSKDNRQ
T1 sequence (P27986 whole entry partner): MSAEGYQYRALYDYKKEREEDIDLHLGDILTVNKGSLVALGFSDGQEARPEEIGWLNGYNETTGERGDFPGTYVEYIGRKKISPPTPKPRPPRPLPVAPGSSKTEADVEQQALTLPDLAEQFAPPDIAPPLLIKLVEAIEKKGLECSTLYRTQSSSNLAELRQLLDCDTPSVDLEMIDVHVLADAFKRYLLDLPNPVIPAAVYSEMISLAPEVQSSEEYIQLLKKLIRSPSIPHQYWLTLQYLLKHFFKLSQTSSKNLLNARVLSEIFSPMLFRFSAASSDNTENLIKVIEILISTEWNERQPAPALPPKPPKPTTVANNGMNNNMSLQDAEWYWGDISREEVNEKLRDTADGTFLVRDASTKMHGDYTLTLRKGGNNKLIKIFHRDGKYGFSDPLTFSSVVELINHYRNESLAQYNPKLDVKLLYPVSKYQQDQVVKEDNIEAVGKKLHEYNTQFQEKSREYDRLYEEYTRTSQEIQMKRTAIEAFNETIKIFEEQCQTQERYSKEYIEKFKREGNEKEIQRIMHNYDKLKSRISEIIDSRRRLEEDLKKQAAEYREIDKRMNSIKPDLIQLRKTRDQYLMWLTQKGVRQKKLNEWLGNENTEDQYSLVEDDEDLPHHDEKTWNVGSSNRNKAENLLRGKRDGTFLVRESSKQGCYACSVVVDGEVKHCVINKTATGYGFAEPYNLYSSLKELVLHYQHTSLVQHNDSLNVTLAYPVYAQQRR

Row | SMILES | PI3Kδ @ 0.1 μM (% Inh) [1] [% Inh] | IC50 [1] [nM] | TEC @ 0.3 μM (% Inh) [2] [% Inh] | IC50 [2] [nM] | CD69 @ 100 nM (% Inh) ([3]; mouse splenocytes, 0.1 µM) | IC50 ([3]; mouse splenocytes) [nM] | TEC @ 0.3 μM (% Inh) ([2]; 0.3 µM) | CD69 @ 100 nM (% Inh) ([3]; mouse splenocytes) | PI3Kδ @ 0.01 μM (% Inh) [1] [% Inh] | IC50 ([3]; Splenocyte, mouse splenocytes) [nM] | PI3Kδ @ 1 μM (% Inh) [1] [% Inh] | IC50 ([3]; Mus musculus, Splenocyte) [nM]
1 | C=CC(=O)N1CC(n2nc(-c3cc(O)cc(F)c3)c3c(N)ncnc32)Cc2cc(C)ccc21 (centres unmarked) [compound 31, 1-(3-(4-amino-3-(3-fluoro-5-hydroxyphenyl)-1H-pyrazolo[3,4-d]pyrimidin-1-yl)-6-methyl-3,4-dihydroquinolin-1(2H)-yl)prop-2-en-1-one] | 44.38 | 33.6 | 57.08 | 24300 | – | – | – | – | – | – | – | –
2 | Nc1ncnc2c1c(-c1ccc(F)c(O)c1)nn2C1CCc2ccccc2C1 (racemic) [Compound No. 26, 5-(4-amino-1-(1,2,3,4-tetrahydronaphthalen-2-yl)-1H-pyrazolo[3,4-d]pyrimidin-3-yl)-2-fluorophenol] | – | 66.1 | 66.1 | – | – | – | – | – | – | – | – | –
3 | Nc1ncnc2c1c(-c1cc(O)cc(F)c1)nn2C1CCc2ccccc2C1 (single isomer, unassigned) [6b, 3-(4-amino-1-(1,2,3,4-tetrahydronaphthalen-2-yl)-1H-pyrazolo[3,4-d]pyrimidin-3-yl)-5-fluorophenol] | 79.6 | 7.7 | – | – | 68.73 ± 21.60 (n = 6) % Inh | 118 ± 104 | 27.3 | – | – | – | – | –
4 | Nc1ncnc2c1c(-c1ccc(Cl)c(O)c1)cn2C1Cc2ccccc2C1 [Compound No. 93, 5-[4-amino-7-(2,3-dihydro-1H-inden-2-yl)-7H-pyrrolo[2,3-d]pyrimidin-5-yl]-2-chlorophenol] | 59.57 | 21.2 | 106.37 | – | – | – | – | −19.68 ± 39.78 (n = 5) % Inh | 24.46 | – | – | –
5 | Nc1ncnc2c1c(-c1ccc(Cl)c(O)c1F)nn2C1Cc2ccccc2C1 [Compound No. 100, 3-[4-amino-1-(2,3-dihydro-1H-inden-2-yl)-1H-pyrazolo[3,4-d]pyrimidin-3-yl]-6-chloro-2-fluorophenol] | 71.71 | 44.7 | 102.76 | – | – | – | – | 27.39 ± 22.07 (n = 5) % Inh | 29.01 | – | – | –
6 | Nc1ncnc2c1c(-c1cc(O)cc(F)c1)nn2C1Cc2ccc(F)cc2C1 (centres unmarked) [compound 57, 3-[4-amino-1-(5-fluoro-2,3-dihydro-1H-inden-2-yl)-1H-pyrazolo[3,4-d]pyrimidin-3-yl]-5-fluorophenol] | 96.89 | 8 | 40.21 | – | – | – | – | 64.26 ± 21.20 (n = 6) % Inh | – | 117 ± 83.6 | 100.0 | –
7 | Nc1ncnc2c1c(-c1cc(O)cc(F)c1)nn2C1CCc2ccccc2C1 (single isomer, unassigned) [6a, 3-(4-amino-1-(1,2,3,4-tetrahydronaphthalen-2-yl)-1H-pyrazolo[3,4-d]pyrimidin-3-yl)-5-fluorophenol] | 77.7 | 9.1 | – | – | 64.71 ± 19.01 (n = 6) % Inh | – | 41.28 | – | – | – | – | 107 ± 26.2
8 | COc1cc(-c2nn(C3Cc4ccccc4C3)c3ncnc(N)c23)ccc1C [Compound No. 49, 1-(2,3-dihydro-1H-inden-2-yl)-3-(3-methoxy-4-methylphenyl)-1H-pyrazolo[3,4-d]pyrimidin-4-amine] | 57.87 | 119 | 44.68 | – | – | – | – | 16.42 ± 20.45 (n = 9) % Inh | – | – | 89.73 | –
9 | C=CC(=O)N1CC(n2nc(-c3cc(O)cc(F)c3)c3c(N)ncnc32)Cc2cc(C)ccc21 (single isomer, unassigned) [31b, 1-(3-(4-amino-3-(3-fluoro-5-hydroxyphenyl)-1H-pyrazolo[3,4-d]pyrimidin-1-yl)-6-methyl-3,4-dihydroquinolin-1(2H)-yl)prop-2-en-1-one] | 78.27 | 10.6 | 56.91 | – | −13.21 ± 4.55 (n = 3) % Inh | – | – | – | 44.15 | – | – | –
10 | Nc1ncnc2c1c(-c1cc(O)cc(F)c1)cn2C1Cc2ccccc2C1 [Compound No. 63, 3-[4-amino-7-(2,3-dihydro-1H-inden-2-yl)-7H-pyrrolo[2,3-d]pyrimidin-5-yl]-5-fluorophenol] | 81.43 | 10.4 | 88.12 | – | – | – | – | 21.07 ± 27.71 (n = 9) % Inh | – | – | 92.56 | –
11 | Nc1ncnc2c1c(-c1cc(O)c(F)c(F)c1)nn2C1Cc2ccccc2C1 [Compound No. 81, 5-[4-amino-1-(2,3-dihydro-1H-inden-2-yl)-1H-pyrazolo[3,4-d]pyrimidin-3-yl]-2,3-difluorophenol] | 87.14 | 3.5 | 71.22 | – | – | – | – | 88.08 ± 32.59 (n = 5) % Inh | – | – | 91.62 | 106 ± 50.8
12 | Nc1ncnc2c1c(-c1cc(O)cc(F)c1)nn2C1Cc2ccccc2C1 [compound 3, 3-(4-amino-1-(2,3-dihydro-1H-inden-2-yl)-1H-pyrazolo[3,4-d]pyrimidin-3-yl)-5-fluorophenol] | – | 7.9 | – | 182 | – | – | – | 77.66 ± 22.65 (n = 6) % Inh | – | – | – | 183 ± 172
13 | Nc1ncnc2c1c(-c1cc(O)c(F)c(C(F)(F)F)c1)nn2C1Cc2ccccc2C1 [Compound No. 102, 5-[4-amino-1-(2,3-dihydro-1H-inden-2-yl)-1H-pyrazolo[3,4-d]pyrimidin-3-yl]-2-fluoro-3-(trifluoromethyl)phenol] | 93.99 | 2.5 | −3.89 | – | – | – | – | 81.06 ± 20.76 (n = 7) % Inh | – | 191 ± 120 | 100.0 | –
14 | Nc1ncnc2c1c(-c1ccc(F)c(O)c1)nn2C1CCc2ccccc2C1 (single isomer, unassigned) [Compound No. 26a, 5-(4-amino-1-(1,2,3,4-tetrahydronaphthalen-2-yl)-1H-pyrazolo[3,4-d]pyrimidin-3-yl)-2-fluorophenol] | 39.35 | 114 | – | 49.3 | 16.07 ± 15.99 (n = 5) % Inh | – | – | – | – | – | – | –
15 | Nc1ncnc2c1c(-c1ccc(Br)c(O)c1)nn2C1Cc2ccccc2C1 [compound 2, 5-(4-amino-1-(2,3-dihydro-1H-inden-2-yl)-1H-pyrazolo[3,4-d]pyrimidin-3-yl)-2-bromophenol] | – | – | – | 100 | – | – | – | 22.52 ± 18.41 (n = 5) % Inh | – | – | – | –
16 | Nc1ncnc2c1c(-c1cc(O)cc(F)c1)nn2C1CCc2ccccc2C1 (centres unmarked) [compound 6, 3-(4-amino-1-(1,2,3,4-tetrahydronaphthalen-2-yl)-1H-pyrazolo[3,4-d]pyrimidin-3-yl)-5-fluorophenol] | – | 8.6 | – | 280 | – | – | – | – | – | – | – | –
